Experimental findings from PMC8066331, “Anticancer Activity of Triazolo-Thiadiazole Derivatives and Inhibition of AKT1 and AKT2 Activation” (Pharmaceutics, 2021) are described below.

A value given as a limit tells only on which side of the number the result lay.

One assay deals with SKOV-3. Description: MTT in vitro antiproliferative assay, SKOV-3. It is filed as cell-based. The note with it: Homo sapiens, SK-OV-3, SKOV-3, MTT; for IC50: 48 h, concentration causing 50% cell death, read-out: IC50; for GI50 / IC (TGI): 48 h drug exposure; for GI50: read-out: GI50; for IC (TGI): read-out: TGI. The text has this:
(§1) The in vitro antiproliferative activities of the novel triazolo[3,4-b]thiadiazole derivatives were estimated in ten well-established human cancer cell lines including three ovarian (SKOV-3, UWB 1.289, and UWB 1.289+BRCA1), five colorectal adenocarcinoma (DLD-1, HT-29, LS174T, LoVo, and SW403), and two prostate cancer cell lines (PC-3 and DU-145). All cancer cell lines were obtained from the American Type Culture Collection (ATCC) and cultivated in different culture media according to the instructions. The required growth mediums were supplemented with 10% fetal bovine serum and 1% streptomycin/penicillin. All cancer cell lines were cultured as monolayers and maintained at 37 °C, 5% CO2 in humidified air.
(§2) Stock solutions of all tested compounds were prepared by dissolving the required amount of substances in the DMSO solvent to reach the desired concentration of 15 mM.
(§3) To evaluate the in vitro antiproliferative activity of the triazolo[3,4-b]thiadiazole derivatives, 3-(4,5-dimethylthiazol-2-yl)-2,5-diphenyltetrazolium bromide (MTT) assay was assessed. According to the protocol, cells were firstly seeded into a 96-well plate at a density of 8 × 10^3 cells and grown for 24 h at 37 °C, 5% CO2 in humidified air. Subsequently, cells were treated with the tested compounds in a specific range of drug concentrations (1–100 μΜ). Following 48 h of drug exposure, the culture media were discarded and replaced with 100 μL of fresh medium. Afterwards, 50 μL of dissolved MTT in phosphate-buffered saline (PBS) solution (5 mg/mL) were added in each well and cells were incubated for 3 h at 37 °C, 5% CO2 in humidified air. Incubation time was followed by MTT discard and the addition of 100 μL of DMSO solvent so that the formazan crystals could be dissolved. The absorbance of the converted dye was immediately measured at a wavelength of 540 nm on an ELISA reader (VersaMax Microplate Reader, Orleans, CA, USA).
(§4) The in vitro anticancer effect of a tested compound on cell viability was determined by three dose–response parameters termed GI50, TGI, and IC50. More specifically, the GI50 value indicates the required concentration of the compound that impels 50% cell growth inhibition, the TGI value corresponds to the concentration that induces 100% cell growth inhibition, and the IC50 value is the concentration that causes 50% cell death. The two parameters GI50 and TGI represent the cytostatic activity, whereas IC50 reflects the cytotoxic effect of a drug. To estimate the three parameters, nine absorbance measurements were required including control 24 h (Ct24), control 72 h (Ct72), and the mean of cell survival in all seven drug concentrations (Tt72). The percentage growth inhibition was calculated according to National Cancer Institute’s (NCI) protocol: [(Tt72x) − (Ct24)/(Ct72) − (Ct24)] × 100 for concentrations for which Tt72x > Ct24 and [(Tt72x) − (Ct24)/Ct24] × 100 for concentrations for which Tt72x < Ct24. GI50 was calculated from [(Tt72x) − (Ct24)/(Ct72) − (Ct24)] × 100 = 50, TGI was calculated from [(Tt72x) − (Ct24)/(Ct72) − (Ct24)] × 100 = 0, and IC50 was calculated from [(Tt72x) − (Ct24)/Ct24] × 100 = 50. All the experiments were carried out in triplicate.

A further assay relates to PC-3. Nature of the assay: MTT in vitro antiproliferative assay, PC-3. Type of assay: cell-based. The note with it: Homo sapiens, PC-3, MTT; for IC50: 48 h, 50% cell death, read-out: IC50; for GI50 / IC (TGI): 48 h drug exposure; for GI50: read-out: GI50; for IC (TGI): read-out: TGI.
Description: as §1, §2, §3, §4

For `CCN(CC)S(=O)(=O)c1cc(OC)c(OC)cc1Cc1nnc2sc(/C=C/c3ccc(Cl)cc3)nn12` [Compound 9a, (E)-2-((6-(4-chlorostyryl)-[1,2,4]triazolo[3,4-b][1,3,4]thiadiazol-3-yl)methyl)-N,N-diethyl-4,5-dimethoxybenzenesulfonamide], in the assay with SKOV-3, the IC50 was more than 100 µM, the GI50 worked out at 84 ± 2 µM and the IC (TGI) is more than 100 µM. Besides, in the assay with PC-3, the IC50 is more than 100 µM, the GI50 was 11 ± 1 µM and the IC (TGI) was more than 100 µM.

As for `CCN(CC)S(=O)(=O)c1cc(OC)c(OC)cc1Cc1nnc2sc(/C=C/c3cccc([N+](=O)[O-])c3)nn12` [Compound 9c, (E)-N,N-diethyl-4,5-dimethoxy-2-((6-(3-nitrostyryl)-[1,2,4]triazolo[3,4-b][1,3,4]thiadiazol-3-yl)methyl)benzenesulfonamide], in the assay with SKOV-3, the IC50 was more than 100 µM, the GI50 is more than 100 µM and the IC (TGI) is more than 100 µM. Further, in the assay with PC-3, the IC50 is more than 100 µM, the GI50 was found to be 38 ± 2 µM and the IC (TGI) was more than 100 µM.

On to `CCN(CC)S(=O)(=O)c1cc(OC)c(OC)cc1Cc1nnc2sc(/C=C/c3ccc([N+](=O)[O-])cc3)nn12` [Compound 9d, (E)-N,N-diethyl-4,5-dimethoxy-2-((6-(4-nitrostyryl)-[1,2,4]triazolo[3,4-b][1,3,4]thiadiazol-3-yl)methyl)benzenesulfonamide], for which, in the assay with SKOV-3, the IC50 was more than 100 µM, the GI50 is more than 100 µM and the IC (TGI) is more than 100 µM. In the assay on PC-3, the IC50 was more than 100 µM, the GI50 stood at 30 ± 0.5 µM and the IC (TGI) is more than 100 µM.

As for `CCN(CC)S(=O)(=O)c1cc(OC)c(OC)cc1Cc1nnc2sc(-c3ccc([N+](=O)[O-])cc3)nn12` [Compound 6d, N,N-diethyl-4,5-dimethoxy-2-((6-(4-nitrophenyl)-[1,2,4]triazolo[3,4-b][1,3,4]thiadiazol-3-yl)methyl)benzenesulfonamide], in the assay with SKOV-3, the IC50 is more than 100 µM, the GI50 turned out to be 80 ± 0.5 µM and the IC (TGI) was more than 100 µM. Besides, in the assay with PC-3, the IC50 is more than 100 µM, the GI50 turned out to be 50 ± 0.5 µM and the IC (TGI) was more than 100 µM.

`CCN(CC)S(=O)(=O)c1cc(OC)c(OC)cc1Cc1nnc2sc(-c3cccc(Cl)c3)nn12` [Compound 6a, 2-((6-(3-chlorophenyl)-[1,2,4]triazolo[3,4-b][1,3,4]thiadiazol-3-yl)methyl)-N,N-diethyl-4,5-dimethoxybenzenesulfonamide]: in the assay on SKOV-3, the IC50 was more than 100 µM, the GI50 came out at 6 ± 0.3 µM and the IC (TGI) was 14 ± 2.5 µM. In the assay on PC-3, the IC50 is more than 100 µM, the GI50 worked out at 25 ± 1.4 µM and the IC (TGI) was determined as 112 ± 2.5 µM.

As to `COc1cc(Cc2nnc3sc(-c4cccc(Cl)c4)nn23)c(S(=O)(=O)N(C(C)C)C(C)C)cc1OC` [Compound 7a, 2-((6-(3-chlorophenyl)-[1,2,4]triazolo[3,4-b][1,3,4]thiadiazol-3-yl)methyl)-N,N-diisopropyl-4,5-dimethoxybenzenesulfonamide], in the assay on SKOV-3, the IC50 was more than 100 µM, the GI50 turned out to be 16 ± 0.8 µM and the IC (TGI) is 46 ± 1.5 µM. Also, in the assay on PC-3, the IC50 was more than 100 µM, the GI50 amounted to 20 ± 0.8 µM and the IC (TGI) is more than 100 µM.

As for `COc1cc(Cc2nnc3sc(/C=C/c4ccc(Cl)cc4)nn23)c(S(=O)(=O)N(C(C)C)C(C)C)cc1OC` [Compound 10a, (E)-2-((6-(4-chlorostyryl)-[1,2,4]triazolo[3,4-b][1,3,4]thiadiazol-3-yl)methyl)-N,N-diisopro-pyl-4,5-dimethoxybenzenesulfonamide], in the assay on SKOV-3, the IC50 is more than 100 µM, the GI50 stood at 76 ± 6 µM and the IC (TGI) is more than 100 µM. For the same compound, in the assay on PC-3, the concentration for half-maximal inhibition (IC50) is more than 100 µM, the GI50 was 2 ± 0.5 µM and the IC (TGI) is 84 ± 2 µM.

Take `COc1cc(Cc2nnc3sc(-c4ccc(F)cc4)nn23)c(S(=O)(=O)N(C(C)C)C(C)C)cc1OC` [Compound 7b, 2-((6-(4-fluorophenyl)-[1,2,4]triazolo[3,4-b][1,3,4]thiadiazol-3-yl)methyl)-N,N-diisopropyl-4,5-dimethoxybenzenesulfonamide]: in the assay with SKOV-3, the IC50 is more than 100 µM, the GI50 was 80 ± 0.8 µM and the IC (TGI) is more than 100 µM. Besides, in the assay with PC-3, the IC50 was more than 100 µM, the GI50 was determined as 25 ± 0.5 µM and the IC (TGI) is 80 ± 1 µM.

`COc1cc(Cc2nnc3sc(/C=C/c4ccc(F)cc4)nn23)c(S(=O)(=O)N(C(C)C)C(C)C)cc1OC` [Compound 10b, (E)-2-((6-(4-fluorostyryl)-[1,2,4]triazolo[3,4-b][1,3,4]thiadiazol-3-yl)methyl)-N,N-diisopro-pyl-4,5-dimethoxybenzenesulfonamide]: in the assay on SKOV-3, the IC50 is more than 100 µM, the GI50 is 50 ± 2 µM and the IC (TGI) was more than 100 µM. In the assay with PC-3, the IC50 is more than 100 µM, the GI50 was found to be 31 ± 1.1 µM and the IC (TGI) is more than 100 µM.

For `CCN(CC)S(=O)(=O)c1cc(OC)c(OC)cc1Cc1nnc2sc(/C=C/c3ccc(F)cc3)nn12` [Compound 9b, (E)-N,N-diethyl-2-((6-(4-fluorostyryl)-[1,2,4]triazolo[3,4-b][1,3,4]thiadiazol-3-yl)methyl)-4,5-dimethoxybenzenesulfonamide], in the assay on SKOV-3, the IC50 is more than 100 µM, the GI50 is more than 100 µM and the IC (TGI) was more than 100 µM. In the assay on PC-3, the IC50 was more than 100 µM, the 50% growth inhibitory concentration (GI50) came to 42 ± 1 µM and the IC (TGI) is more than 100 µM.

Consider `CCN(CC)S(=O)(=O)c1cc(OC)c(OC)cc1Cc1nnc2sc(-c3ccc(Cl)cc3)nn12` [Compound 6b, 2-((6-(4-chlorophenyl)-[1,2,4]triazolo[3,4-b][1,3,4]thiadiazol-3-yl)methyl)-N,N-diethyl-4,5-dimethoxybenzenesulfonamide], for which, in the assay on SKOV-3, the IC50 was more than 100 µM, the GI50 was determined as 36 ± 0.1 µM and the IC (TGI) turned out to be 60 ± 0.8 µM. Moreover, in the assay on PC-3, the IC50 came to 104 ± 0.8 µM, the GI50 stood at 32 ± 0.4 µM and the IC (TGI) was found to be 56 ± 0.6 µM.

Regarding `CCN(CC)S(=O)(=O)c1cc(OC)c(OC)cc1Cc1nnc2sc(-c3ccc(F)cc3)nn12` [Compound 6c, N,N-diethyl-2-((6-(4-fluorophenyl)-[1,2,4]triazolo[3,4-b][1,3,4]thiadiazol-3-yl)methyl)-4,5-dimethoxybenzenesulfonamide], in the assay with SKOV-3, the IC50 was more than 100 µM, the GI50 is more than 100 µM and the IC (TGI) was more than 100 µM. For the same compound, in the assay with PC-3, the IC50 was more than 100 µM, the GI50 worked out at 90 ± 2 µM and the IC (TGI) is more than 100 µM.

With `COc1cc(Cc2nnc3sc(-c4ccc([N+](=O)[O-])cc4)nn23)c(S(=O)(=O)N(C(C)C)C(C)C)cc1OC` [Compound 7c, N,N-diisopropyl-4,5-dimethoxy-2-((6-(4-nitrophenyl)-[1,2,4]triazolo[3,4-b][1,3,4]thiadiazol-3-yl)methyl)benzenesulfonamide], in the assay on SKOV-3, the IC50 stood at 66 ± 2.5 µM, the GI50 is 15 ± 1.4 µM and the IC (TGI) stood at 28 ± 2.2 µM. For the same compound, in the assay on PC-3, the IC50 was more than 100 µM, the GI50 came out at 23 ± 0.8 µM and the IC (TGI) stood at 102 ± 1.2 µM.
